One data set deals with male NMR^1 mice. The experiment in a line: Anorectic effect: consumption of condensed milk by fasted mice after administration by gavage. It is filed as in vivo. How it is done: The anorectic effect was tested on male NMR^1 mice. After withdrawal of feed for 24 hours, the test product was administered by gavage. The animals were housed singly and had free access to drinking water and, 30 minutes after administration of the product, they were offered condensed milk. The consumption of condensed milk was determined, and the general behavior of the animals was inspected, every half hour for 7 hours. The measured milk consumption was compared with that of untreated control animals.

Where “and” joins values, the source holds several entries; their conditions need not be identical. Identical values can stand only once.

Usually melting point stands for the temperature of the solid-liquid transition. Turning to `Br.CN=c1sc2c(n1C)-c1cccc(-c3ccc(C(F)(F)F)cc3)c1C2`, the melting point is 231 °C and 230 to 233 °C.

The compound `Br.CN1C(=CN)SC2=C1c1ccc(Cl)cc1C2` had a melting point of 278 °C.

In turn, `Cl.Cn1c2c(sc1=NCC(=O)O)COc1ccc(F)cc1-2` showed a melting point of 256 °C.

Turning to `CN1C(=CN)SC2=C1c1ccc(Oc3ccc(Cl)cc3)cc1C2.Cl` [Example 15, [6-(4-Chlorophenoxy)-3-methyl-3,8-dihydroindeno[1,2-d]thiazol-2-ylidene]methylamine hydrochloride], the melting point was 250 to 252 °C and 251 °C.

As to `Br.c1ccc(Oc2ccc3c(c2)CC2=C3N3CCN=C3S2)cc1` [Example 24, 7-Phenoxy-4H,9H-2,3-dihydroimidazo[2,1-b]indeno[1,2-d]thiazole hydrobromide], in the data set on male NMR^1 mice (oral dose 50 mg/kg by gavage, compared with untreated control animals, 7 hours), the “Reduction in the cumulative milk consumption as % of the controls” value was 93%. In addition, in the data set with male NMR^1 mice (oral dose 50 mg/kg by gavage, feed withdrawn 24 hours, milk offered 30 minutes after administration, determined for 7 hours, 5 animals), the “cumulative milk consumption by the treated animals” value is 5/0.30 ml. Moreover, in the data set with male NMR^1 mice (oral dose 50 mg/kg, behavior inspected every half hour for 7 hours), the “Remarks (general behavior / side effects of the animals)” value was “none”.

Source of the values: patent US20010011096A1, “Polycyclic thiazol-2-ylidene amines, processes for their preparation and their use as medicaments” (priority 1999, published 2001).
